Experimental data from PMC7464304, “Multiple-Reaction Monitoring Tandem Mass Method for Determination of Phenolics and Water-Soluble Vitamins in Eccoilopus formosanus” (Molecules, 2020).

Experiment: DPPH radical scavenging activity
Conditions: 0.1 mM DPPH, 30 min in the dark at room temperature, absorbance 517 nm; mean ± SD (n = 3)
Description: The reaction mixture was left in the dark at room temperature for 30 min. […] The percentage of scavenging activity against the DPPH radical was calculated by the following equation:Radical scavenging activity (%) = (Abs control − Abs sample)/Abs control × 100% where Abs control is the absorbance of the DPPH radical in methanol; Abs sample is the absorbance of the DPPH radical solution mixed with the sample extract. […] All determinations were performed in triplicate.

O=c1cc(-c2ccc(O)cc2)oc2cc(O)cc(O)c12 [Apigenin, apigenin]
DPPH Radical Scavenging Activity, IC50 Value: 31.6 ± 0.9 µg/mL

COc1cc(/C=C/C(=O)O)ccc1O [Ferulic acid, ferulic acid]
DPPH Radical Scavenging Activity, IC50 Value: 45.2 ± 0.3 µg/mL

Cc1ncc(C[n+]2csc(CCO)c2C)c(N)n1 [Thiamine, thiamine]
DPPH Radical Scavenging Activity, IC50 Value: >500 µg/mL

O=C(O)c1cc(O)c(O)c(O)c1 [Gallic acid, gallic acid]
DPPH Radical Scavenging Activity, IC50 Value: 21.1 ± 0.3 µg/mL

O=C(O)/C=C/c1ccc(O)c(O)c1 [Caffeic acid, caffeic acid]
DPPH Radical Scavenging Activity, IC50 Value: 25.3 ± 0.3 µg/mL
